In publication PMC7567642, “A Fully Integrated Assay Panel for Early Drug Metabolism and Pharmacokinetics Profiling” (Assay and Drug Development Technologies, 2020):
Converted amounts (≈) assume the structure as drawn. Where two headings read alike, the source gives them in different places.

Legend:
[1] = Automated shake-flask logD7.4 assay (1-octanol/phosphate buffer pH 7.4); type: physicochemical
Protocol: The assay starts with transfer of individual compound solutions into pools of 10 compounds, alongside two pool QCs, using a Hamilton STARplus liquid handling workstation. […] This step combines 4 μL each of 10 mM compound solutions to a total of 48 μL in an intermediate plate (pool QCs are at 5 mM each). These and subsequent transfers as outlined below involve fresh pipetting tips to eliminate risks of cross-contamination.
The next assay step involves transfer of 500 μL octanol from a tray to an empty deep well plate, to which 10 μL of each pool is subsequently transferred and thoroughly mixed by repetitive aspiration and dispensing. An octanol-saturated phosphate buffer at pH 7.4 is then added (500 μL) followed by sealing of the content with a PP-based lid. Vigorous shaking of the content is achieved through vortexing for 30 s and equilibration of compound between the two phases is further established through a 3 h incubation on a plate shaker.
Following equilibration, the deep well plate is centrifuged to ensure separation between phases and the plate is next moved back to the Hamilton platform for sampling of 5 μL from the octanol phase. The sample is placed in a first dilution plate together with 495 μL of an AcN:H2O mix (1:2) containing FA (0.1%) and verapamil as internal standard (IS). The acidified and IS containing AcN solution, which is common for the logD7.4 and Sol assays, is referred to as the IS solution. The content is thoroughly mixed and next serially diluted to four additional plates with 10-fold dilutions to maximize the ability to detect weakly concentrated solutions and afford investigations of linearity in response.
After sampling, the remaining octanol is removed from the deep well plate through careful pipetting, followed by sampling from the aqueous buffer. […]
The plates are next brought to the MS instrumentation (Xevo TQS; Waters) and read out using the established UPLC-MS/MS methods. […]

[2] = set-up: method as in PMID 19429424; settings: published dried DMSO assays; cited from earlier work
[3] = QC control, literature value; cited from earlier work
[4] = Dried DMSO solubility assay (Sol), phosphate buffer pH 7.4; type: physicochemical; settings: ATM inhibitor project
Protocol: Unlike the logD7.4 assay compounds are not pooled, but instead 50 μL of individual DMSO stock solutions are transferred to glass vials kept in a 3D printed rack that facilitates subsequent liquid transfers using a 96-well pipetting head on the Hamilton STARplus platform. There is no pool QC in the Sol workflow, instead this is replaced with the inclusion of three QCs, the positioning of which is randomized for each week. Solvent is evaporated and the dried compounds are resolubilized in 500 μL of aqueous phosphate buffer at pH 7.4.
Individual Stir Stixs are added to each glass vial using a drop dispenser from V&P Scientific, Inc., a rubber mat is used to seal the vials, and samples are then equilibrated under mixing for 20–24 h. […]
The process of centrifugation and transfer is repeated to remove any remaining debris, except that the 20 μL supernatant transfer combines sampling and pooling of 10 samples to a pool plate with 200 μL of an IS solution (same as in logD7.4). […] Finally, sample and standard plates are sealed and read out, analyzed, and qualified as described for the logD7.4 assay. Calculated solubility values (in μM) are exported into our internal database ensuring global availability to users.

[5] = target: Ataxia Telangiectasia Mutated (ATM) kinase (Homo sapiens, UniProt Q13315); settings: ATM inhibitor project
Chain of Ataxia Telangiectasia Mutated (ATM) kinase (Q13315 whole entry, species assumed, change not shown): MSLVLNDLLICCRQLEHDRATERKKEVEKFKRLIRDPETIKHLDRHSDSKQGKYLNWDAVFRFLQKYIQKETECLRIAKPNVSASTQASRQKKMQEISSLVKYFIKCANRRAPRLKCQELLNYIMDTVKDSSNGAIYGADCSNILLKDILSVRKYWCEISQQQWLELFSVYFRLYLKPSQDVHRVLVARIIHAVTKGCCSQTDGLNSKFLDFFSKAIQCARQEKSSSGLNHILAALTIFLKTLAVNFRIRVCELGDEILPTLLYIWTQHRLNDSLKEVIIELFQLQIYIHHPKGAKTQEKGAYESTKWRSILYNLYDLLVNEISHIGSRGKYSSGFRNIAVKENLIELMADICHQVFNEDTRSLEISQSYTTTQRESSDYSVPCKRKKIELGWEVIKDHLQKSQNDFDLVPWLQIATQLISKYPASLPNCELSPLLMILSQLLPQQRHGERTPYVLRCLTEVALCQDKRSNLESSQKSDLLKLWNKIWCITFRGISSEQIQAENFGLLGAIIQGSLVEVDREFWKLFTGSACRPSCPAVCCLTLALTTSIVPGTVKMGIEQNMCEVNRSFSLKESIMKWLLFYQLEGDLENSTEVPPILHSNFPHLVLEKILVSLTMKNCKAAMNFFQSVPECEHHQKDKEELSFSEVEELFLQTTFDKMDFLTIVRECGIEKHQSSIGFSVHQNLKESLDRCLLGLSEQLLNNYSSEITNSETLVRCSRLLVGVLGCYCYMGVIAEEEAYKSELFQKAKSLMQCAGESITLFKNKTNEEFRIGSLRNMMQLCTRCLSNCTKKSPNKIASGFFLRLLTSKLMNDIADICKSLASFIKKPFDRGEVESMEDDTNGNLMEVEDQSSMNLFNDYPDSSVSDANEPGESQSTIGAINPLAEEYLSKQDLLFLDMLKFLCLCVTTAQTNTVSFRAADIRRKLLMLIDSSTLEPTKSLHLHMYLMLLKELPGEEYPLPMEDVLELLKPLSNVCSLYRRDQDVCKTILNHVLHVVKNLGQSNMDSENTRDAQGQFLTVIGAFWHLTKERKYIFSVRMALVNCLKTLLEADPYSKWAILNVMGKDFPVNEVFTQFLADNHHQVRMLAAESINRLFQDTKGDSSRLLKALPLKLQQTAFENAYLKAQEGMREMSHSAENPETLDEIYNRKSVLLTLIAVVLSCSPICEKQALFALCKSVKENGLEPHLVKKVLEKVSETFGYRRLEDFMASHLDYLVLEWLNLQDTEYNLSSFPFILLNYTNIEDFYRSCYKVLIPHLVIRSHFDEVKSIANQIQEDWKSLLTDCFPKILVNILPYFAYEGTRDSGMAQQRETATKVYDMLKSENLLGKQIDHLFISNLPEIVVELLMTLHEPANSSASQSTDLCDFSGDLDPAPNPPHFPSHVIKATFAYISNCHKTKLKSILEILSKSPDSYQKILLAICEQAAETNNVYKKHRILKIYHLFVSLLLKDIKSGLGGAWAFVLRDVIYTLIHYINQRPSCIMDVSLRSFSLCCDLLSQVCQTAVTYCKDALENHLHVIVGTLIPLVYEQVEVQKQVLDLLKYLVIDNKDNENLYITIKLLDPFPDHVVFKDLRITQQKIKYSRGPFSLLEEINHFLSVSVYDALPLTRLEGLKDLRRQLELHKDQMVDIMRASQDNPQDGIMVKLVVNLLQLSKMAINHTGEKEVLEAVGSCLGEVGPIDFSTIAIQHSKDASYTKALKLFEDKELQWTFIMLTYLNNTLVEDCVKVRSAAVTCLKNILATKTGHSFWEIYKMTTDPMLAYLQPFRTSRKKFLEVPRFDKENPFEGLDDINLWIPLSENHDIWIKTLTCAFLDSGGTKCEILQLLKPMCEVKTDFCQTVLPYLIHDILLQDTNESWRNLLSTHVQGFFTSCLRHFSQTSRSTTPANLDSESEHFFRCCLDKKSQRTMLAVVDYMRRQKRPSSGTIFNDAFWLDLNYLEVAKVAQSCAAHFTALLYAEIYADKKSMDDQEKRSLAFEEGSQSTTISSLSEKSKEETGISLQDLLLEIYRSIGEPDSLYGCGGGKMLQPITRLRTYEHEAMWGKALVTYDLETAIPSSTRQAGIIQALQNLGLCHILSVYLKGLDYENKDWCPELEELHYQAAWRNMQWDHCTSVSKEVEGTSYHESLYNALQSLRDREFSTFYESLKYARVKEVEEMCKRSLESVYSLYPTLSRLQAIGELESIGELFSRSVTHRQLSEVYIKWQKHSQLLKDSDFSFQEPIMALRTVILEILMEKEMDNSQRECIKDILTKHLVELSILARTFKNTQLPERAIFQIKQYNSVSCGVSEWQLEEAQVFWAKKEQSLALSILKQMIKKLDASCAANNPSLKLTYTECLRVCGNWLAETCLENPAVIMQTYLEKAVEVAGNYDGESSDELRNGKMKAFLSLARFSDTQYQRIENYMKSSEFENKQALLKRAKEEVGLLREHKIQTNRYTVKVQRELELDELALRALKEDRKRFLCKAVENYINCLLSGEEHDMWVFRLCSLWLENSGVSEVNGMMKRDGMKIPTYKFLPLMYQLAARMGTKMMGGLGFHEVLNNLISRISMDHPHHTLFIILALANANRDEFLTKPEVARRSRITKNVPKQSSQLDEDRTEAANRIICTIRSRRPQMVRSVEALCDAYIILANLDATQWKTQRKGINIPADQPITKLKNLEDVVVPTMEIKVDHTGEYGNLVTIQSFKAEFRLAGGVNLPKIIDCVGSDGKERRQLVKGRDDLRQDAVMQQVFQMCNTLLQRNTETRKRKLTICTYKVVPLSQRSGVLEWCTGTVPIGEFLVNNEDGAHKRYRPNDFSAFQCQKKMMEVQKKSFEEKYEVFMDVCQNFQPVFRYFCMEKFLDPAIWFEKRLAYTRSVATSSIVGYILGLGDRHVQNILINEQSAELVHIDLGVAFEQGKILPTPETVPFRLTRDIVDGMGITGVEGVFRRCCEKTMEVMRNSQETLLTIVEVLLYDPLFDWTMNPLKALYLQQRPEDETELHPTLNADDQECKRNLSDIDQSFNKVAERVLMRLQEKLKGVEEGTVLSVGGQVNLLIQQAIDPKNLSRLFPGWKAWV

human plasma = settings: cited from earlier work

Question: Which logD at 3 h ([1]; pH 7.4, ATM inhibitor project, DMPK Wave 1 panel) does the source give for `CC(C)n1c(=O)n(C)c2cnc3cc(F)c(-c4ccc(OCCCN5CCCCC5)nc4)cc3c21` here?
Answer: The logD at 3 h was 2.7.

Question: Which solubility [2] does the source give for `COc1ccc(CCN2CCC(Nc3nc4ccccc4n3Cc3ccc(F)cc3)CC2)cc1` [astemizole, Astemizole] here?
Answer: The solubility was 2.9 µM (≈ 1.33 µg/mL).

Question: Which solubility [2] does the source give for `CN(C)CCCN1c2ccccc2Sc2ccc(Cl)cc21` [chlorpromazine, Chlorpromazine] here?
Answer: Its solubility is 450 µM (≈ 143 µg/mL).

Question: For `CN(C)CCC=C1c2ccccc2C=Cc2ccccc21` [cyclobenzaprine, Cyclobenzaprine], which logD7.4 [3] is on record?
Answer: The logD7.4 was 2.8.

Question: What does the source list for `CCC(CC)CNc1c(C(N)=O)cnc2ccc(C#N)cc12` [initial starting point]?
Answer: solubility (in words) [4]: low μM solubility; logD7.4 ([1]; ATM inhibitor project, DMPK Wave 1 panel): 3.5; potency on the target protein (in words) [5]: μM potency

Question: With `COCCc1ccc(OCC(O)CNC(C)C)cc1` (centres unmarked) [metoprolol, Metoprolol] as the compound, how does the “fu (fraction unbound)” value (human plasma) read?
Answer: Its value is about 85%.

Question: Which logD at 3 h ([1]; 1-octanol/phosphate buffer pH 7.4, pH 7.4, QC control, in-house data) does the source give for `COC(=O)C1=C(C)NC(C)=C(C(=O)OCCN(C)Cc2ccccc2)C1c1cccc([N+](=O)[O-])c1` (centres unmarked) [nicardipine, Nicardipine] here?
Answer: The logD at 3 h was 4.5.

Question: For `O=C1NC(=O)C(c2ccccc2)(c2ccccc2)N1` [phenytoin, Phenytoin], which solubility [2] is on record?
Answer: Its solubility is 86 µM (≈ 21.7 µg/mL).

Question: For `CC(=O)CC(c1ccccc1)c1c(O)c2ccccc2oc1=O` (centres unmarked) [warfarin, Warfarin], which “fu (fraction unbound)” value (human plasma) is on record?
Answer: The value was about 1%.
